In patent US5242826A, “Polypeptides for adhering cells to a substrate” (Regents of the University of Minnesota, priority 1991, dated 1993):

Assay: 3H-heparin binding to type IV collagen and to NCl domain
Experimental: It was then established that ^3 H-heparin binds both to intact, native type IV collagen and to the isolated NCl domain. FIGS. 10 and 11 show the binding of a constant amount of ^3 H-heparin (85,000 dpm) to increasing concentrations of type IV collagen and the NCl domain, respectively. […] Type IV collagen binds 5-6 times more ^3 H-heparin than does the NCl domain.
Next, the binding of increasing concentrations of ^3 H-heparin to a constant amount of type IV collagen (3 μg) and an equimolar amount of the NCl domain (1 μg) was tested. […] In this type of experiment, approximately 4 times more ^3 H-heparin bound to type IV collagen than to the NCl domain.

binding of a constant amount of 3H-heparin to increasing concentrations of protein (3H-heparin 85,000 dpm, FIG. 10-11): saturable binding | 3H-heparin bound by type IV collagen relative to NCl domain (constant 3H-heparin (85,000 dpm), increasing protein): 5-6 times | 3H-heparin bound to type IV collagen relative to NCl domain (increasing 3H-heparin, constant protein (3 μg vs 1 μg)): approximately 4 times | binding of increasing concentrations of 3H-heparin to a constant amount of protein (type IV collagen 3 μg, NCl domain 1 μg (equimolar), FIG. 12-13): saturable binding
Substance: type IV collagen: basement membrane glycoprotein, MW about 500,000, two α1 chains and one α2 chain
